Columns and labels:
[1] = target: β-lactamase from B. cereus (Bacillus cereus, UniProt P04190); experiment: Release of adriamycin from ADR-ceph in human plasma at 37°C, HPLC; type: biochemical; details: human plasma 37°C, ADR-ceph 572 µg/ml, β-lactamase 0.45 µg/ml
Description: The ability of the purified β-lactamase from B. cereus and the lactamase-L6 conjugate to catalyze the release of adriamycin from ADR-ceph was evaluated in human plasma at 37°C.
(§1) Stock solutions of the β-lactamase and lactamase-L6 conjugate were prepared in 0.05 M Hepes buffer (pH7). Aliquots of these stock solutions were added to solutions of ADR-ceph in human plasma thermostated at 37°C. The final concentration of ADR-ceph was 572 µg/ml in the β-lactamase experiment and 896 µg/ml in the L6-lactamase experiment; and the final concentrations of β-lactamase and L6-lactamase conjugate were 0.45 µg/ml and 5.4µg/ml, respectively. Aliquots were withdrawn periodically and were added to two volumes of cold methanol (4°C). The precipitated proteins were removed by centrifugation. The supernatants were analyzed by HPLC using a Waters Associates C18 Radial Pak cartridge (8x100 mm). The column was eluted at 2.0 mL/min with a mobile phase of 60% of 0.05 M ammonium phosphate (pH 6.5) containing 5% acetonitrile and 40% of a mixture of acetonitrile-water (80:20). The peaks were detected by uv at 254 nm. In these assays the respective retention times for adriamycin and ADR-ceph were 3.8 and 7.5 minutes.

B. cereus β-lactamase [2] = target: B. cereus β-lactamase (Bacillus cereus, UniProt P04190); type: biochemical; details: substrate 100 µg/ml, 0.05 M phosphate buffer, pH 7.0, 25°C
[3] = target: L6-lactamase (B. cereus) conjugate (Bacillus cereus, UniProt P04190); type: biochemical; details: pH 7
[4] = target: Sigma penicillinase from E. cloacae (Enterobacter cloacae, UniProt P05364); experiment: Specific activity of β-lactamases for cephalosporin substrates, spectrophotometric; type: biochemical; details: substrate 100 µg/ml, 0.05 M phosphate buffer, pH 7.0, 25°C
Chain of Sigma penicillinase from E. cloacae (P05364 21-381): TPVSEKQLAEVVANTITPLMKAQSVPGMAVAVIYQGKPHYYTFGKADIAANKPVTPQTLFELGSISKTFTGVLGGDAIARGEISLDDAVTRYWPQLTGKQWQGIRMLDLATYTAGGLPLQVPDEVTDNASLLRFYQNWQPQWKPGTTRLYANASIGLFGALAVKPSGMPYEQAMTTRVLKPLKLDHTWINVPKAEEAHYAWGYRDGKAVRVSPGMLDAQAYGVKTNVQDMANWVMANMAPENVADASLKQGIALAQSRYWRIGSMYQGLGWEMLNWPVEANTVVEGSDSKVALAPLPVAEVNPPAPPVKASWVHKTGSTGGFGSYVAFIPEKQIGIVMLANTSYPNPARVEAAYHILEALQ
Description: The specific activities of selected β-lactamases for ADR-ceph were examined. These enzymes were B. cereus β-lactamase, lactamase-L6 conjugate, Sigma penicillinase from E. cloacae (Sigma Chemical) and P99 cephalosporinase from E. cloacae. All enzymes were diluted to give protein concentrations of 0.20 ± 0.01 mg/ml (with respect to β-lactamase). Assays were performed spectrophotometrically to 0.05 M phosphate buffer, pH 7.0, at 25°C. Cephaloridine was used as a reference substrate for the enzymes.
P99 cephalosporinase had the highest specific activity for both cephaloridine and ADR-ceph. […] The Sigma "penicillinase" had the lowest activity of all the preparations. […] The differences in activity is probably due to differences in purity between the two preparations.

[5] = target: P99 cephalosporinase from E. cloacae (Enterobacter cloacae, UniProt P05364); type: biochemical; details: pH 7
Chain of P99 cephalosporinase from E. cloacae (P05364 21-381): as above

[6] = Stability of ADR-ceph in rat plasma at 37°C, HPLC; type: in vitro ADME
Description: as §1
(§2) Using the same HPLC assay described in Example 2.2.2 the respective half lives at 37°C of ADR-ceph in rat plasma, buffer at pH 7.4, and human plasma are 8, 20 and ≧ 12 hours (Figure 9).

[7] = Stability of ADR-ceph in buffer at pH 7.4 at 37°C, HPLC; type: physicochemical; details: buffer at pH 7.4, 37°C
Description: as §1, §2

[8] = Stability of ADR-ceph in human plasma at 37°C, HPLC; type: in vitro ADME
Description: as §1, §2

[9] = target: T1, B. cereus β-lactamase (II) (Bacillus cereus, UniProt P04190); type: biochemical
T1 sequence (P04190 31-257): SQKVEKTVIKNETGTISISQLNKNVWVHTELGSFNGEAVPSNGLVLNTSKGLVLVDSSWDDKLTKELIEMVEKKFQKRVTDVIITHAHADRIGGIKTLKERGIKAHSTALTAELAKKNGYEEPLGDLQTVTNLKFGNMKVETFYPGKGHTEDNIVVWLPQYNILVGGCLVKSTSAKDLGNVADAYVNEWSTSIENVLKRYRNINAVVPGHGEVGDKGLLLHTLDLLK

B. cereus β-lactamase [10] = target: T2, B. cereus β-lactamase (Bacillus cereus, UniProt P04190); type: biochemical; details: CM 50 µM in PBS at 37° C, 3 µg total protein/ml, partially purified enzyme
T2 construct: purchased Sigma Chem. Co
T2 sequence (P04190 31-257): T1 sequence (P04190 31-257)

E. coli β-lactamase = experiment: Hydrolysis of CM by commercially available β-lactamase in PBS at 37° C, HPLC; type: biochemical; details: CM 50 µM in PBS at 37° C, 3 µg total protein/ml, partially purified enzyme
[11] = test system: human lung adenocarcinoma cell line, H2981
Balb C nu/nu mice = details: mouse, in vivo, iv
in vitro = details: mouse, plasma
physchem = details: imdm cell growth medium
H2981 lung cells = experiment: In vitro cytotoxicity of CM with L6-β-lactamase conjugate, 3H-thymidine incorporation; details: cells exposed to L6-β-lactamase conjugate 1 hr at 37° C, washed, then CM
[12] = target: T3, BCP II (Bacillus cereus penicillinase) (Bacillus cereus, UniProt P04190); experiment: Conversion of the cephalosporin-mitomycin prodrug by BCP II in PBS, followed by TLC; type: biochemical; details: 0.3 mg compound in PBS (1 mL), BCP II 10 µL (4.1 mg/mL)
T3 sequence (P04190 31-257): T1 sequence (P04190 31-257)
Description: To a greyish blue solution of the title compound (0.3 mg) in PBS (1 mL) was added BCP II (Bacillus cereus penicillinase, 10 µL, protein concentration = 4.1 mg/mL). Immediately the color changed to blue.

In the case of `COc1cccc2c1C(=O)c1c(O)c3c(c(O)c1C2=O)C[C@@](O)(C(=O)CO)C[C@@H]3O[C@H]1C[C@H](NC(=O)OCC2=C(C(=O)O)N3C(=O)C(NC(=O)Cc4ccccc4)C3SC2)[C@H](O)[C@H](C)O1` (some centres unmarked) [ADR-ceph, 3-[[(N-adriamycinyl)carbonyloxy]methyl]-7-phenylacetamido-8-oxo-5-thia-1-azabicyclo[4.2.0]oct-2-ene-2-carboxylic acid], the “hydrolysis of ADR-ceph, release of adriamycin” value [1] is reported as “efficiently hydrolyzed”, the “Hydrolysis, µmoles/min/µg protein” value (B. cereus β-lactamase [2]) is reported as 0.016 µmoles/min/µg protein and the “Hydrolysis, µmoles/min/µg protein” value [3] is reported as 0.021 µmoles/min/µg protein. The “Hydrolysis, µmoles/min/µg protein” value [4] was 0.0030 µmoles/min/µg protein, the “Hydrolysis, µmoles/min/µg protein” value [5] was 0.060 µmoles/min/µg protein and the half-life [6] was 8 h. The half-life [7] was 20 h and the half-life [8] was at least 12 h.
With `O=C(Cc1ccccc1)NC1C(=O)N2C(C(=O)O)=C(COC(=O)Nc3ccc(N(CCCl)CCCl)cc3)CSC12` (centres unmarked) [CM] the Km ([9]; CM as substrate) was 25 µM, the Vmax ([9]; CM as substrate) was 250 µmol/min/mg and the “hydrolysis of CM, release of PDM” value (B. cereus β-lactamase [10]) was “able to hydrolyze CM to release the nitrogen mustard, PDM”. For the same compound, the “hydrolysis of CM, release of PDM” value (E. coli β-lactamase) was “able to hydrolyze CM to release the nitrogen mustard, PDM”, the IC50 [11] was about 100 µM and the “cytotoxic activity of CM with purified B. cereus β-lactamase (II)” value [11] was “enhanced the cytotoxic activity of CM to the level observed for PDM”. For the same compound, the “enhancement of the activity of CM by β-lactamases” value [11] was 50-100 fold, the “difference in toxicity on a molar basis, CM versus PDM” value (Balb C nu/nu mice) was over 11 fold and the “dose up to which no toxicity was observed” value (Balb C nu/nu mice) was at least 900 µg/injection. The metabolised at 2.5 h, 500 µM (in vitro) was 12%, the half-life at 500 µM (physchem) was 0.5 h and the “cytotoxic effect of CM with the antibody-β-lactamase conjugate” value (H2981 lung cells) was “enhanced cytotoxic effect”.
In the case of `O=C(Cc1cccs1)N[C@@H]1C(=O)N2C(C(=O)[O-])=C(C[n+]3ccccc3)CS[C@H]12` [Cephaloridine, reference compound], the “Hydrolysis, µmoles/min/µg protein” value (B. cereus β-lactamase [2]) is reported as 0.038 µmoles/min/µg protein, the “Hydrolysis, µmoles/min/µg protein” value [3] is reported as 0.045 µmoles/min/µg protein and the “Hydrolysis, µmoles/min/µg protein” value [4] is reported as 0.026 µmoles/min/µg protein. For the same compound, the “Hydrolysis, µmoles/min/µg protein” value [5] was 0.30 µmoles/min/µg protein.
In the case of `O=C(O)CN(CCN(CC(=O)O)CC(=O)O)CC(=O)O` [EDTA, reference compound], the “inhibition of the enzyme activity” value [9] is reported as “completely inhibited”.
In the case of `COC12C(COC(N)=O)C3=C(C(=O)C(C)=C(NCC4=C(C(=O)O)N5C(=O)C(NC(=O)Cc6ccccc6)C5SC4)C3=O)N1CC1NC12` (centres unmarked) [Example 1.2.5, 7-Phenylacetamido-3-(N^7-mitomycin C)-8-oxo-5-thia-1-azabicyclo[4.2.0]oct-2-ene-2-carboxylic acid], the “conversion to mitomycin C” value [12] is reported as “complete conversion to mitomycin C”.

— patent publication EP0742015A1, “Prodrugs for beta-lactamase and uses thereof” (Bristol-Myers Squibb Company, priority 1990, dated 1992)
